Reference: patent US20160304461A1, “QUINOLONE COMPOUND AND PHARMACEUTICAL COMPOSITION” (OTSUKA PHARMACEUTICAL CO., LTD., priority 2007, published 2016)

Assays:
[1] = test system: human neuroblastoma cell lines SH-SY5Y; assay: Improvement of mitochondrial dysfunction in MPP+-treated SH-SY5Y cells (Alamar Blue mitochondrial oxidation reduction activity); assay type: cell-based; settings: SH-SY5Y cells in 1.5 mM MPP+ medium, relative to cells in DMSO alone = 100%, read-out: Fluorescence Intensity (%); for activity at 0.01 µg/mL: test compound 0.01 μg/ml; for activity at 0.03 µg/mL: test compound 0.03 μg/ml; for activity at 0.1 µg/mL: test compound 0.1 μg/ml; for activity at 0.3 µg/mL: test compound 0.3 μg/ml; for activity at 1 µg/mL: test compound 1 μg/ml
Description: Evaluation of Improvement of Mitochondrial Dysfunction using Human Neuroblastoma Cell Lines SH-SY5Y Treated with 1-methyl-4-phenylpyridinium (MPP^+)
In human neuroblastoma cell lines SH-SY5Y in which mitochondrial activity was injured by MPP^+ treatment (Bollimuntha S. et al., J Biol Chem, 280, 2132-2140 (2005) and Shang T. et al., J Biol Chem, 280, 34644-34653 (2005)), improvement of the mitochondrial dysfunction was evaluated on the basis of the measurement value of the mitochondrial oxidation reduction activity using Alamar Blue fluorescent dye after the compound addition (Nakai M. et. al, Exp Neurol, 179, 103-110 (2003)).
The human neuroblastoma cell lines SH-SY5Y were cultured in Dulbecco's Modified Eagle's Medium containing 10% fetal bovine serum (DMEM containing 50 units/ml penicillin and 50 μg/ml streptomycin as antibiotics) at 37° C. in the presence of 5% carbon dioxide. Cells were scattered on a poly-D-lysine-coated 96-well black plate at a concentration of 3-6×10^4 cells/cm^2 (medium amount: 100 μl/well), and cultured in the above medium for two days. Further, the medium was changed to a DMEM containing a 1% N2 supplement (N2-DMEM) or to a medium (100 μl/well) in which 1.5 mM MPP^+ was dissolved. The cells were cultured therein for 39 to 48 hours, and then subjected to a mitochondrial oxidation reduction activity measurement system. A sample compound that had been previously dissolved in dimethyl sulfoxide (DMSO) was diluted with N2-DMEM, and added in a volume of 10 μl/well 24 hours before the activity measurement (final compound concentration: 0.01 to 1 μg/ml).
After removal of the medium by suction, a balanced salt solution containing 10% Alamar Blue (154 mM sodium chloride, 5.6 mM potassium chloride, 2.3 mM calcium chloride, 1.0 mM magnesium chloride, 3.6 mM sodium bicarbonate, 5 mM glucose, 5 mM HEPES, pH 7.2) was added in a volume of 100 μl/well, and reacted in an incubator at 37° C. for 1 hour. The fluorescent intensity was detected using a fluorescence detector (a product of Hamamatsu Photonics K.K., excitation wavelength 530 nm, measurement wavelength 580 nm) to thereby measure the mitochondrial oxidation reduction activity.
The fluorescent intensity of the well of the cells cultured in a medium containing MPP^+ and in each of the sample compounds was relatively evaluated based on a 100% fluorescent intensity of the well of the cells cultured in a medium containing DMSO alone (final concentration: 0.1%).

Structure (SMILES)	melting point [°C]	activity at 0.01 µg/mL [1] [%]	activity at 0.03 µg/mL [1] [%]	activity at 0.1 µg/mL [1] [%]	activity at 0.3 µg/mL [1] [%]	activity at 1 µg/mL [1] [%]
CCCOc1ccc(F)c2c(=O)c(-c3ccc(SC)cc3)c[nH]c12 [Example 38, 5-Fluoro-3-(4-methylsulfanylphenyl)-8-propoxy-1H-quinolin-4-one]	198 to 199	66	67	86	81	78
CCCOc1ccc(F)c2c(=O)c(-c3ccc(CC)cc3)c[nH]c12 [Example 53, 3-(4-Ethylphenyl)-5-fluoro-8-propoxy-1H-quinolin-4-one]	153 to 154	53	56	67	60	67
COc1ccc(-c2c[nH]c3c(OCCCC(F)(F)F)ccc(F)c3c2=O)cc1 [Example 31, 5-Fluoro-3-(4-methoxyphenyl)-8-(4,4,4-trifluorobutoxy)-1H-quinolin-4-one]	171 to 172	45	45	57	59	48
CCCSc1ccc(F)c2c(=O)c(-c3ccc(OC)cc3)c[nH]c12 [Example 40, 5-Fluoro-3-(4-methoxyphenyl)-8-propylsulfanyl-1H-quinolin-4-one]	173 to 174	60	64	76	70	72
CCCOc1ccc(F)c2c(=O)c(-c3ccsc3C=O)c[nH]c12 [Example 60, 3-(5-Fluoro-4-oxo-8-propoxy-1,4-dihydroquinolin-3-yl)thiophene-2-carbaldehyde]	190 to 191					
COc1ccc(-c2c[nH]c3c(OC(C)(C)C)ccc(F)c3c2=O)cc1 [Example 42, 8-tert-Butoxy-5-fluoro-3-(4-methoxyphenyl)-1H-quinolin-4-one]	206 to 208					
CCCOc1ccc(F)c2c(=O)c(-c3ccc(OC(F)(F)F)cc3)c[nH]c12 [Example 5, 5-Fluoro-8-propoxy-3-(4-trifluoromethoxyphenyl)-1H-quinolin-4-one]	212 to 214					
CCCOc1ccc(F)c2c(=O)c(-c3ccco3)c[nH]c12 [Example 58, 5-Fluoro-3-furan-2-yl-8-propoxy-1H-quinolin-4-one]	210 to 212					
COc1ccc(-c2c[nH]c3c(N4CCCC4)ccc(F)c3c2=O)cc1 [Example 18, 5-Fluoro-3-(4-methoxyphenyl)-8-pyrrolidin-1-yl-1H-quinolin-4-one]	100 to 105					
CCOc1ccc(F)c2c(=O)c(-c3ccc(OC)cc3)c[nH]c12 [Example 11, 8-Ethoxy-5-fluoro-3-(4-methoxyphenyl)-1H-quinolin-4-one]	155 to 156					
COc1ccc(-c2c[nH]c3c(OCC4CCCO4)ccc(F)c3c2=O)cc1 (stereo not shown) [Example 39, 5-Fluoro-3-(4-methoxyphenyl)-8-(tetrahydrofuran-2-ylmethoxy)-1H-quinolin-4-one]	108 to 110					
COc1ccc(-c2c[nH]c3c(OC4CCCC4)ccc(Br)c3c2=O)cc1 [Example 104, 5-Bromo-8-cyclopentyloxy-3-(4-methoxyphenyl)-1H-quinolin-4-one]	213 to 215					

Now from value to molecule, other results behind:

melting point [°C]	Structure (SMILES)	activity at 0.01 µg/mL [1] [%]	activity at 0.03 µg/mL [1] [%]	activity at 0.1 µg/mL [1] [%]	activity at 0.3 µg/mL [1] [%]	activity at 1 µg/mL [1] [%]
167 to 168	CCCOc1ccc(F)c2c(=O)c(-c3ccc(OC(F)(F)F)cc3)c(C)[nH]c12 [Example 70, 5-Fluoro-2-methyl-8-propoxy-3-(4-trifluoromethoxyphenyl)-1H-quinolin-4-one]	56	57	67	71	63
196 to 197	CCCOc1ccc(F)c2c(=O)c(-c3ccc(OC)cc3)c[nH]c12 [Example 6, 5-Fluoro-3-(4-methoxyphenyl)-8-propoxy-1H-quinolin-4-one]	59	71	85	88	83
123 to 125	CCCOc1ccc(F)c2c(=O)c(-c3ccc(OC)cc3)cn(CC)c12 [Example 92, 1-Ethyl-5-fluoro-3-(4-methoxyphenyl)-8-propoxy-1H-quinolin-4-one]	63	75	77	69	55
167 to 169	COc1ccc(-c2c(C)[nH]c3c(OCC4CC4)ccc(F)c3c2=O)cc1 [Example 47, 8-Cyclopropylmethoxy-5-fluoro-3-(4-methoxyphenyl)-2-methyl-1H-quinolin-4-one]	51	58	71	73	82
217 to 218	CCCOc1ccc(F)c2c(=O)c(-c3ccc(OC)c(OC)c3)c[nH]c12 [Example 62, 3-(3,4-Dimethoxyphenyl)-5-fluoro-8-propoxy-1H-quinolin-4-one]	66	62	79	84	80
233 to 234	CCCOc1ccc(F)c2c(=O)c(-c3cccs3)c(C)[nH]c12 [Example 72, 5-Fluoro-2-methyl-8-propoxy-3-thiophen-2-yl-1H-quinolin-4-one]					
176 to 177	CCCOc1ccc(F)c2c(=O)c(-c3ccc(N(C)C)cc3)c(C(F)(F)F)[nH]c12 [Example 79, 3-(4-Dimethylaminophenyl)-5-fluoro-8-propoxy-2-trifluoromethyl-1H-quinolin-4-one]					
187 to 188	CCCOc1ccc(F)c2c(=O)c(-c3ccc(CC)cc3)c(C(F)(F)F)[nH]c12 [Example 80, 3-(4-Ethylphenyl)-5-fluoro-8-propoxy-2-trifluoromethyl-1H-quinolin-4-one]					
230 to 232	CCCOc1ccc(F)c2c(=O)c(-c3ccc(OC)cc3F)c[nH]c12 [Example 17, 5-Fluoro-3-(2-fluoro-4-methoxyphenyl)-8-propoxy-1H-quinolin-4-one]					
203 to 204	CCCOc1ccc(F)c2c(=O)c(-c3ccco3)c(C)[nH]c12 [Example 76, 5-Fluoro-3-furan-2-yl-2-methyl-8-propoxy-1H-quinolin-4-one]					
169 to 171	CCCOc1ccc(F)c2c(=O)c(-c3ccc(OC)cc3)c(CC)[nH]c12 [Example 48, 2-Ethyl-5-fluoro-3-(4-methoxyphenyl)-8-propoxy-1H-quinolin-4-one]					
255 to 257	CCCOc1ccc(F)c2c(=O)c(-c3ccc(N(C)C)cc3)c(C)[nH]c12 [Example 73, 3-(4-Dimethylaminophenyl)-5-fluoro-2-methyl-8-propoxy-1H-quinolin-4-one]					
256 to 259	CCCOc1ccc(F)c2c(=O)c(-c3ccc(Cl)cc3Cl)c[nH]c12 [Example 10, 3-(2,4-Dichlorophenyl)-5-fluoro-8-propoxy-1H-quinolin-4-one]					
197 to 199	CCCOc1ccc(F)c2c(=O)c(-c3ccc(OC)cc3C)c[nH]c12 [Example 16, 5-Fluoro-3-(4-methoxy-2-methylphenyl)-8-propoxy-1H-quinolin-4-one]					
194 to 195	CCCOc1ccc(F)c2c(=O)c(-c3ccc(OC)c(F)c3)c[nH]c12 [Example 2, 5-Fluoro-3-(3-fluoro-4-methoxyphenyl)-8-propoxy-1H-quinolin-4-one]					
100 to 101	CCCOc1ccc(F)c2c(=O)c(-c3ccc(OC)cc3OC)c(C)[nH]c12 [Example 75, 3-(2,4-Dimethoxyphenyl)-5-fluoro-2-methyl-8-propoxy-1H-quinolin-4-one]					
